Test results from patent US20080234233A1, “MEDICAMENT FOR TREATMENT OF NEURODEGENERATIVE DISEASES” (INSTITUTE OF MEDICINAL MOLECULAR DESIGN INC., priority 2002, published 2008).

System: NF-κ B activation
Test: Inhibitory activity of NF-κB activation, luciferase reporter assay under TNF-α stimulation in HepG2
Type: cell-based, human
Conditions: HepG2, TNF-α 40 ng/ml, 4 hours; for inhibition at 10 µg/mL / inhibition at 1 µg/mL: Homo sapiens, read-out: Inhibitory rate against NF-κB activation (%)
Summary of the method: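 HepG2 cells transiently transfected with luciferase reporter carrying five tandem NF-κB binding sites, then stimulated with TNF-α (40 ng/ml) ± compound for 4 hours. Luminescent luciferase activity measured; inhibition expressed relative to activity without compound.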

Cc1sc(NC(=O)c2cc(Br)ccc2O)nc1-c1ccccc1 [compound 192]
Inhibitory rate against NF-κB activation (%) (Drug concentration at 1 μg/mL): 83.6% | Inhibitory rate against NF-κB activation (%) (Drug concentration at 10 μg/mL): 94.4%

Cc1nc(NC(=O)c2cc(Br)ccc2O)sc1-c1ccc(F)cc1 [compound 193, 5-Bromo-N-[4-methyl-5-(4-fluorophenyl)thiazol-2-yl]-2-hydroxybenzamide]
inhibition at 10 µg/mL (Drug concentration at 10 μg/mL): 82%

Cc1nc(NC(=O)c2cc(Br)ccc2O)sc1-c1cccc(C(F)(F)F)c1 [compound 194, 5-Bromo-N-{4-methyl-5-[3-(trifluoromethyl)phenyl]thiazol-2-yl}-2-hydroxy-benzamide]
inhibition at 10 µg/mL (Drug concentration at 10 μg/mL): 71.7%

CC(C)c1nc(NC(=O)c2cc(Br)ccc2O)sc1-c1ccccc1 [compound 197, 5-Bromo-N-(4-isopropyl-5-phenylthiazol-2-yl)-2-hydroxybenzamide]
inhibition at 1 µg/mL (Drug concentration at 1 μg/mL): 70.1% | inhibition at 10 µg/mL (Drug concentration at 10 μg/mL): 96.1%

CCCCc1nc(NC(=O)c2cc(Br)ccc2O)sc1-c1ccccc1 [compound 198, 5-Bromo-N-(4-butyl-5-phenylthiazol-2-yl)-2-hydroxybenzamide]
inhibition at 1 µg/mL (Drug concentration at 1 μg/mL): 46.1% | inhibition at 10 µg/mL (Drug concentration at 10 μg/mL): 88.7%

CC(=O)Oc1ccc(Cl)cc1C(=O)Nc1nc(C(C)(C)C)c(C(=O)C(C)(C)C)s1 [compound 200]
Inhibitory rate against NF-κB activation (%) (Drug concentration at 1 μg/mL): 95.0% | Inhibitory rate against NF-κB activation (%) (Drug concentration at 10 μg/mL): 97.7%

CCOC(=O)c1sc(NC(=O)c2cc(Br)ccc2O)nc1C(C)(C)C [compound 202, 2-(5-Bromo-2-hydroxybenzoyl)amino-4-[(1,1-dimethyl)ethyl]thiazole-5-carboxylic acid ethyl ester]
inhibition at 1 µg/mL (Drug concentration at 1 μg/mL): 84.5% | inhibition at 10 µg/mL (Drug concentration at 10 μg/mL): 92.4%

CC(C)(C)c1nc(NC(=O)c2cc(Br)ccc2O)sc1N1CCCCC1 [compound 204, 5-Bromo-N-{4-[(1,1-dimethyl)ethyl]-5-piperidinothiazol-2-yl}-2-hydroxybenzamide]
inhibition at 1 µg/mL (Drug concentration at 1 μg/mL): 93.6% | inhibition at 10 µg/mL (Drug concentration at 10 μg/mL): 97.8%

CC(C)(C)c1nc(NC(=O)c2cc(Br)ccc2O)sc1N1CCOCC1 [compound 205, 5-Bromo-N-{4-[(1,1-dimethyl)ethyl]-5-morpholinothiazol-2-yl}-2-hydroxybenzamide]
inhibition at 1 µg/mL (Drug concentration at 1 μg/mL): 87.8% | inhibition at 10 µg/mL (Drug concentration at 10 μg/mL): 96.8%

CN1CCN(c2sc(NC(=O)c3cc(Br)ccc3O)nc2C(C)(C)C)CC1 [compound 206, 5-Bromo-N-{4-[(1,1-dimethyl)ethyl]-5-(4-methylpiperazin-1-yl)thiazol-2-yl}-2-hydroxybenzamide]
inhibition at 1 µg/mL (Drug concentration at 1 μg/mL): 36.3% | inhibition at 10 µg/mL (Drug concentration at 10 μg/mL): 89.6%

CC(C)(C)c1nc(NC(=O)c2cc(Br)ccc2O)sc1N1CCN(c2ccccc2)CC1 [compound 207, 5-Bromo-N-{4-[(1,1-dimethyl)ethyl]-5-(4-phenylpiperazin-1-yl)thiazol-2-yl}-2-hydroxybenzamide]
inhibition at 1 µg/mL (Drug concentration at 1 μg/mL): 92.5% | inhibition at 10 µg/mL (Drug concentration at 10 μg/mL): 95.9%

O=C(Nc1nc(-c2ccccc2)cs1)c1cc(Br)ccc1O [compound 208]
Inhibitory rate against NF-κB activation (%) (Drug concentration at 10 μg/mL): 78.8%

O=C(O)Cc1sc(NC(=O)c2cc(Br)ccc2O)nc1-c1ccccc1 [compound 210]
Inhibitory rate against NF-κB activation (%) (Drug concentration at 10 μg/mL): 72.1%

O=C(Nc1nc(Cc2ccccc2)c(-c2ccccc2)s1)c1cc(Br)ccc1O [compound 212]
Inhibitory rate against NF-κB activation (%) (Drug concentration at 1 μg/mL): 79.7% | Inhibitory rate against NF-κB activation (%) (Drug concentration at 10 μg/mL): 95.0%

O=C(Nc1nc(C(F)(F)F)c(-c2ccccc2)s1)c1cc(Br)ccc1O [compound 213]
Inhibitory rate against NF-κB activation (%) (Drug concentration at 1 μg/mL): 85.1% | Inhibitory rate against NF-κB activation (%) (Drug concentration at 10 μg/mL): 89.4%

CC(=O)c1sc(NC(=O)c2cc(Br)ccc2O)nc1-c1ccccc1 [compound 214, 5-Bromo-N-(5-acetyl-4-phenylthiazol-2-yl)-2-hydroxybenzamide]
inhibition at 1 µg/mL (Drug concentration at 1 μg/mL): 70.2% | inhibition at 10 µg/mL (Drug concentration at 10 μg/mL): 95.9%

O=C(Nc1nc(-c2ccccc2)c(C(=O)c2ccccc2)s1)c1cc(Br)ccc1O [compound 215, 5-Bromo-N-(5-benzoyl-4-phenylthiazol-2-yl)-2-hydroxybenzamide]
inhibition at 1 µg/mL (Drug concentration at 1 μg/mL): 90.7% | inhibition at 10 µg/mL (Drug concentration at 10 μg/mL): 97.3%

CCOC(=O)c1sc(NC(=O)c2cc(Br)ccc2O)nc1-c1ccccc1 [compound 216, 2-(5-bromo-2-hydroxybenzoyl)amino-4-phenylthiazole-5-carboxylic acid ethyl ester]
inhibition at 1 µg/mL (Drug concentration at 1 μg/mL): 55.8% | inhibition at 10 µg/mL (Drug concentration at 10 μg/mL): 82.8%

CCOC(=O)c1sc(NC(=O)c2cc(Br)ccc2O)nc1-c1ccccc1 [compound 218]
Inhibitory rate against NF-κB activation (%) (Drug concentration at 1 μg/mL): 80.7% | Inhibitory rate against NF-κB activation (%) (Drug concentration at 10 μg/mL): 94.2%

CCOC(=O)c1sc(NC(=O)c2cc(Br)ccc2O)nc1-c1c(F)c(F)c(F)c(F)c1F [compound 219, Ethyl 2-(5-bromo-2-hydroxybenzoyl)amino-4-(pentafluorophenyl)thiazole-5-carboxylate]
inhibition at 1 µg/mL (Drug concentration at 1 μg/mL): 82.2% | inhibition at 10 µg/mL (Drug concentration at 10 μg/mL): 96%

CNC(=O)c1sc(NC(=O)c2cc(Br)ccc2O)nc1-c1ccccc1 [compound 220]
Inhibitory rate against NF-κB activation (%) (Drug concentration at 1 μg/mL): 50.8% | Inhibitory rate against NF-κB activation (%) (Drug concentration at 10 μg/mL): 58.6%

CCNC(=O)c1sc(NC(=O)c2cc(Br)ccc2O)nc1-c1ccccc1 [compound 221]
Inhibitory rate against NF-κB activation (%) (Drug concentration at 1 μg/mL): 51.9% | Inhibitory rate against NF-κB activation (%) (Drug concentration at 10 μg/mL): 84.0%

CC(C)NC(=O)c1sc(NC(=O)c2cc(Br)ccc2O)nc1-c1ccccc1 [compound 222]
Inhibitory rate against NF-κB activation (%) (Drug concentration at 1 μg/mL): 49.6% | Inhibitory rate against NF-κB activation (%) (Drug concentration at 10 μg/mL): 91.3%

O=C(Nc1nc(-c2ccccc2)c(C(=O)NCCc2ccccc2)s1)c1cc(Br)ccc1O [compound 223]
Inhibitory rate against NF-κB activation (%) (Drug concentration at 1 μg/mL): 33.3% | Inhibitory rate against NF-κB activation (%) (Drug concentration at 10 μg/mL): 60.4%

CCOC(=O)c1sc(NC(=O)c2cc(Br)ccc2O)nc1C(F)(F)F [compound 224]
Inhibitory rate against NF-κB activation (%) (Drug concentration at 1 μg/mL): 87.6% | Inhibitory rate against NF-κB activation (%) (Drug concentration at 10 μg/mL): 96.5%

CCOC(=O)c1sc(NC(=O)c2cc(-c3ccc(F)cc3)ccc2O)nc1-c1ccccc1 [compound 226]
Inhibitory rate against NF-κB activation (%) (Drug concentration at 1 μg/mL): 45.0% | Inhibitory rate against NF-κB activation (%) (Drug concentration at 10 μg/mL): 85.8%

CCOC(=O)c1sc(NC(=O)c2cc(-c3ccc(F)cc3F)ccc2O)nc1-c1ccccc1 [compound 227]
Inhibitory rate against NF-κB activation (%) (Drug concentration at 1 μg/mL): 31.8% | Inhibitory rate against NF-κB activation (%) (Drug concentration at 10 μg/mL): 90.3%

CCOC(=O)c1sc(NC(=O)c2cc(-c3ccc(C(F)(F)F)cc3)ccc2O)nc1-c1ccccc1 [compound 228, 2-{[4-Hydroxy-4′-(trifluoromethyl)biphenyl]-3-carbonyl}amino-4-phenylthiazole-5-carboxylic acid ethyl ester]
Inhibitory rate against NF-κB activation (%) (Drug concentration at 10 μg/mL): 90.0%

CCOC(=O)c1sc(NC(=O)c2cc(-n3cccc3)ccc2O)nc1-c1ccccc1 [compound 229]
Inhibitory rate against NF-κB activation (%) (Drug concentration at 1 μg/mL): 74.0% | Inhibitory rate against NF-κB activation (%) (Drug concentration at 10 μg/mL): 90.1%

CCOC(=O)c1sc(NC(=O)c2cc(-c3cccs3)ccc2O)nc1-c1ccccc1 [compound 230, 2-[2-Hydroxy-5-(2-thienyl)benzoyl]amino-4-phenylthiazole-5-carboxylic acid ethyl ester]
inhibition at 1 µg/mL (Drug concentration at 1 μg/mL): 40.8% | inhibition at 10 µg/mL (Drug concentration at 10 μg/mL): 84.8%

O=C(Nc1nc(-c2cc(C(F)(F)F)cc(C(F)(F)F)c2)cs1)c1cc(Cl)ccc1O [compound 231, 5-Chloro-2-hydroxy-N-{4-[3,5-bis(trifluoromethyl)phenyl]thiazol-2-yl}benzamide]
inhibition at 1 µg/mL (Drug concentration at 1 μg/mL): 95.9% | inhibition at 10 µg/mL (Drug concentration at 10 μg/mL): 94.5%

CCOC(=O)c1c(NC(=O)c2cc(Cl)ccc2O)sc2c1CCCC2 [compound 232]
Inhibitory rate against NF-κB activation (%) (Drug concentration at 1 μg/mL): 88.2% | Inhibitory rate against NF-κB activation (%) (Drug concentration at 10 μg/mL): 85.4%
